Experimental findings from ChEMBL document CHEMBL1201862, “PubChem BioAssay data set” (2004) are described below.

Structures are written as SMILES.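 Growth conditions: 96-well plates. Treatment: test compound, 48 hours, 5 concentrations. Analysis: linear interpolation between bracketing concentrations; unreached endpoints set to highest concentration. GI50 is the concentration that inhibits growth by half.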 Activity calls are given as the source filed them. Rule as the data show it: active = GI50 up to about 1.1 µM and inactive = higher.

Some test systems named below: DMS-114; SNB-78; KM-20L2; HOP-18; DLD-1; DMS-273; XF498; M19-MEL; RXF 631.
What all share (test): DTP human tumour cell line panel, 48 h

As a reminder, the GI50 is the concentration that inhibits growth by half. Consider `COc1ccc(OC)c(-c2cc(O)c3cc4c(cc3n2)OCO4)c1`, for which the GI50 is 3.68 µM (inactive) in the assay with DMS-114; 6.98 µM (inactive) with SNB-78; 4.14 µM (inactive) in the assay on KM-20L2; > 96.2 µM (inactive) with HOP-18; 3.57 µM (inactive) in the assay on DLD-1; 4.06 µM (inactive) with DMS-273. The GI50 with XF498 is 4.42 µM (inactive); in the assay on M19-MEL it was 4.21 µM (inactive).
Turning to `O=C(c1ccccc1)N1C2CCC1C(C(F)(F)F)=C2C(F)(F)F`, the GI50 in the assay with DMS-114, in the assay on SNB-78, in the assay on KM-20L2, in the assay on HOP-18, with DLD-1 and in the assay on RXF 631 was > 100 µM (inactive) in each case. The GI50 in the assay on DMS-273 and in the assay with M19-MEL was > 100 µM (inactive) throughout.
Regarding `Cc1cnc2ccc(C)c([N+](=O)[O-])c2c1NCCCN(C)C`, the GI50 in the assay on DMS-114 was 86.5 µM (inactive); with SNB-78 it was > 100 µM (inactive); in the assay on KM-20L2, 91.6 µM (inactive); in the assay on DMS-273 it was > 100 µM (inactive); with XF498 it was > 100 µM (inactive); in the assay on M19-MEL it was > 100 µM (inactive).
Consider `COc1cc(C2=NN(C)C(c3ccc([N+](=O)[O-])o3)C2)cc(OC)c1OC` (stereo not drawn), for which the GI50 in the assay with DMS-114 was 35.6 µM (inactive); in the assay on SNB-78, > 100 µM (inactive); in the assay with KM-20L2, > 100 µM (inactive); in the assay with HOP-18 it was > 100 µM (inactive); with DLD-1 it was 48.4 µM (inactive); in the assay with RXF 631, 51.5 µM (inactive). For the same molecule, the GI50 with DMS-273 was > 100 µM (inactive); in the assay on M19-MEL, 29.8 µM (inactive).
With `CCSc1nc2sc(C)c(C)c2c(=O)n1-c1ccc(C(=O)O)cc1`, the GI50 is 76.9 µM (inactive) in the assay on DMS-114; 94 µM (inactive) in the assay on SNB-78; > 100 µM (inactive) with KM-20L2; 10.2 µM (inactive) with HOP-18; 43.2 µM (inactive) in the assay with DLD-1; 75.7 µM (inactive) with XF498. In addition, the GI50 in the assay with M19-MEL was 60 µM (inactive).
As for `CC1=C(C(=O)Nc2ccc([N+](=O)[O-])cc2)C(c2ccccc2O)C(C(=O)Nc2ccc([N+](=O)[O-])cc2)=C(C)N1`, the GI50 is 15.3 µM (inactive) in the assay on DMS-114; 30.5 µM (inactive) with SNB-78; 14.5 µM (inactive) with KM-20L2; 18.5 µM (inactive) with DLD-1; 15.4 µM (inactive) in the assay with RXF 631; 23.3 µM (inactive) with DMS-273. Besides, the GI50 in the assay on XF498 is 13.6 µM (inactive); in the assay with M19-MEL, 20.5 µM (inactive).
For `Cc1cc(N(CCC#N)CCC#N)ccc1/N=N/c1ccccc1[N+](=O)[O-]`, the GI50 in the assay on DMS-114, with SNB-78, in the assay on HOP-18, in the assay with DLD-1, in the assay on RXF 631 and with DMS-273 was > 100 µM (inactive) in each case. Besides, the GI50 with XF498 is 26.8 µM (inactive); in the assay on M19-MEL, > 100 µM (inactive).
For the molecule `CCc1cc(Cc2cc(CC)c(NC(=O)C(=O)Cc3ccccn3)c(CC)c2Cl)c(Cl)c(CC)c1NC(=O)C(=O)Cc1ccccn1`, the GI50 was 96.8 µM (inactive) in the assay with DMS-114; > 100 µM (inactive) with SNB-78; > 100 µM (inactive) in the assay on KM-20L2; > 100 µM (inactive) in the assay on HOP-18; > 100 µM (inactive) in the assay with DLD-1; > 100 µM (inactive) in the assay on DMS-273. Further, the GI50 with XF498 and in the assay with M19-MEL was > 100 µM (inactive) each time.
For the molecule `O=C(O)/C(Cl)=C(\Cl)C(=O)Nc1ccccc1`, the GI50 in the assay on SNB-78, with KM-20L2, in the assay on HOP-18, in the assay on DLD-1, with RXF 631 and with DMS-273 was > 100 µM (inactive) throughout. Also, the GI50 in the assay on M19-MEL is > 100 µM (inactive).
With `Cc1cc(C)c(C(=O)O)c(N)c1O`, the GI50 in the assay with DMS-114, in the assay on KM-20L2, in the assay on DLD-1, in the assay with DMS-273 and in the assay with M19-MEL was > 100 µM (inactive) in each case.
Turning to `COc1cc([C@@H]2c3cc4c(cc3[C@@H](NCc3ccc(C#N)cc3)C3COC(=O)[C@@H]32)OCO4)cc(OC)c1O` (stereo partly drawn), the GI50 in the assay with DMS-114 is 1.2 µM (inactive); in the assay with SNB-78 it was 4.74 µM (inactive); in the assay on KM-20L2 it was 1.08 µM (active); in the assay with HOP-18, 95.3 µM (inactive); in the assay with DLD-1, 1.33 µM (inactive); in the assay with DMS-273, 0.326 µM (active). Besides, the figures for the GI50 with XF498 and with M19-MEL were 0.278 µM (active) and 1.82 µM (inactive), respectively.
As to `COc1cc(C(=O)N2CCc3c([nH]c4c([N+](=O)[O-])c(OC)ccc34)C2C)cc(OC)c1OC` (stereo not drawn), the GI50 in the assay on DMS-114 was > 100 µM (inactive); with SNB-78, 58.7 µM (inactive); in the assay with KM-20L2, > 100 µM (inactive); in the assay with DLD-1, > 100 µM (inactive); with RXF 631, 79.6 µM (inactive); with DMS-273 it was > 100 µM (inactive).
Consider `CCOC(=O)/C(C#N)=C/c1[nH]c(C)c(C)c1C`, for which the GI50 in the assay on DMS-114, in the assay on SNB-78, in the assay on KM-20L2, with HOP-18, with DLD-1 and in the assay on DMS-273 was > 100 µM (inactive) each time. The GI50 with XF498 and in the assay with M19-MEL was > 100 µM (inactive) each time.
For `NNC(=O)N/N=C1\CN(c2ccc(Cl)cc2Cl)C(=O)C(=O)C1c1nc2ccccc2o1` (stereo not drawn), the GI50 in the assay on DMS-114 was > 100 µM (inactive); with SNB-78, 39.1 µM (inactive); in the assay with KM-20L2, > 100 µM (inactive); with DLD-1, > 100 µM (inactive); in the assay with RXF 631 it was > 100 µM (inactive); in the assay on DMS-273, > 100 µM (inactive). In addition, the GI50 with XF498 and in the assay on M19-MEL was > 100 µM (inactive) throughout.
Take `CC(C)C12Cc3c(ccc4ccccc34)OC1(C)Oc1ccc3ccccc3c1C2` (stereo not drawn): the GI50 in the assay with DMS-114 was 25.6 µM (inactive); in the assay with SNB-78, > 100 µM (inactive); in the assay on KM-20L2, > 100 µM (inactive); in the assay on DLD-1, > 100 µM (inactive); with DMS-273, > 100 µM (inactive); in the assay on XF498, > 100 µM (inactive).
Turning to `CC(=O)OC1=C2CC[C@@H]3C(CC[C@@]4(C)C3CC[C@@H]4OC(C)=O)[C@@]2(C)CC(C#N)C1=O` (stereo partly drawn), the GI50 with DMS-114 is 17.8 µM (inactive); with SNB-78 it was 26.8 µM (inactive); in the assay on KM-20L2, 27.7 µM (inactive); in the assay with DLD-1 it was 9.82 µM (inactive); with DMS-273, 20.9 µM (inactive); with XF498, 18.6 µM (inactive).
As for `O=S(=O)(C1=CC(S(=O)(=O)c2ccccc2)COC1)c1ccccc1` (stereo not drawn), the GI50 in the assay with DMS-114, with DLD-1, with DMS-273, with XF498 and with M19-MEL was > 100 µM (inactive) throughout.
Take `CCOC(=O)C1C(=O)c2ccccc2CN1Cc1ccccc1` (stereo not drawn): the GI50 with DMS-114, with SNB-78, with KM-20L2, in the assay on HOP-18, in the assay on DLD-1 and in the assay with RXF 631 was > 100 µM (inactive) throughout. Besides, the GI50 in the assay on DMS-273, in the assay with XF498 and with M19-MEL was > 100 µM (inactive) in each case.
As for `COc1ccc2c3c(c(C(=O)O)oc13)C(CCC(=O)O)CC2` (stereo not drawn), the GI50 with DMS-114, with SNB-78, in the assay with KM-20L2, in the assay with HOP-18, with DLD-1 and with DMS-273 was > 100 µM (inactive) each time. Also, the GI50 with XF498 is > 100 µM (inactive).
In the case of `CCCCCCCCCCCCCC(=O)OC1CC(=O)OC1CO` (stereo not drawn), the GI50 in the assay with DMS-114 is 35.7 µM (inactive); with SNB-78 it was 37.8 µM (inactive); in the assay on KM-20L2, 50.7 µM (inactive); with HOP-18, 21.6 µM (inactive); in the assay with DLD-1, 34.4 µM (inactive); in the assay on DMS-273 it was > 100 µM (inactive). The GI50 with XF498 is 65.3 µM (inactive); with M19-MEL it was > 100 µM (inactive).
Consider `COc1ccc(OC)c(NC(=O)CCC/C(CC(=O)c2ccc(O)c(OC)c2)=N\Nc2nnc(C)n2N)c1`, for which the GI50 was 95.7 µM (inactive) in the assay with DMS-114; > 100 µM (inactive) in the assay with KM-20L2; > 100 µM (inactive) in the assay with HOP-18; > 100 µM (inactive) in the assay on DLD-1; > 100 µM (inactive) in the assay with DMS-273; > 100 µM (inactive) with XF498. In addition, in the assay with M19-MEL, the GI50 was > 100 µM (inactive).
Consider `Fc1ccc(C2SCc3nc4ccccc4n32)cc1` (stereo not drawn), for which the GI50 in the assay with DMS-114 was 39.5 µM (inactive); in the assay with SNB-78 it was 13.8 µM (inactive); with HOP-18, < 0.01 µM (active); with DLD-1, 39.7 µM (inactive); in the assay with XF498, 27.8 µM (inactive); in the assay on M19-MEL, 41 µM (inactive).
Regarding `CS(=O)(=O)OCCn1cnc2nc(NC(=O)c3ccccc3)[nH]c(=O)c21`, the GI50 in the assay on DMS-114, in the assay with SNB-78, in the assay on KM-20L2, with HOP-18, in the assay on DLD-1 and in the assay with RXF 631 was > 100 µM (inactive) throughout. Further, the GI50 with DMS-273 and in the assay with M19-MEL was > 100 µM (inactive) throughout.
Regarding `Cc1ccc(Nc2nc(C)c(C(/C=C/c3ccc(/C=C/C(=N/NC(=O)C[n+]4ccccc4)c4sc(Nc5ccc(C)cc5[N+](=O)[O-])nc4C)cc3)=N\NC(=O)C[n+]3ccccc3)s2)c([N+](=O)[O-])c1`, the GI50 was 92.9 µM (inactive) in the assay on DMS-114; 91.2 µM (inactive) in the assay on SNB-78; > 100 µM (inactive) with KM-20L2; 7.96 µM (inactive) in the assay on HOP-18; 71.3 µM (inactive) in the assay on DLD-1; > 100 µM (inactive) with RXF 631. The GI50 with DMS-273 and in the assay on M19-MEL was > 100 µM (inactive) throughout.
